Experimental data as given in PMC10108821, “Three tyrosine kinase inhibitors cause cardiotoxicity by inducing endoplasmic reticulum stress and inflammation in cardiomyocytes” (BMC Medicine, 2023).
Read-outs that look alike come from different tables or passages of the source.

Tests used:
[1] = test system: NRCMs; test: Calcium staining with Calbryte 520 AM; assay type: cell-based, rat; conditions: 0.5 and 1 h; 10 µM afatinib, 10 µM sorafenib, 5.62 µM ponatinib
[2] = test system: Phospho-eIF2α, XBP1s, ATF6 (cleaved); test: Western blot of ER stress effectors in NRCMs; assay type: cell-based, rat
Description: Cells were homogenized in the RIPA lysis buffer (Applygen) containing protease and phosphatase inhibitor cocktails (Bimake). The extract was spun at 12,000xg for 20min at 4°C. Total protein was measured by BCA (Thermofisher) and resolved by sodium dodecyl sulfate–polyacrylamide gel electrophoresis (SDS-PAGE). Proteins were blotted to polyvinylidene difluoride membranes (Amersham). Blots were blocked with non-fat milk (BBI Life Sciences) and incubated with antibodies against ATF6 (proteintech), phospho-eIF2α (ABclonol), XBP1 (ABclonol) and GAPDH (proteintech). Goat anti-rabbit IgG, goat anti-mouse IgG were incubated with the blots for 1 hour at room temperature. After 3 washes with 1xTBST (50 mM Tris-Cl, 150 mM NaCl, 0.1% Tween 20, pH 7.5), the blots were developed with the ECL Plus Kit (Absin). Relative protein expression was quantified by optical density and normalized to GAPDH.

[3] = test system: Sprague-Dawley rats; test: Rat gavage cardiotoxicity model: survival, heart and body weight; conditions: day 7; ponatinib 15 mg/kg, sorafenib 50 mg/kg gavage once daily
Description: (§1) All experiments were performed in accordance with relevant guidelines and regulations approved by the Institutional Animal Care and Use Committee (IACUC) at Peking University Health Science Center. Sprague-Dawley rats (170-200g) were purchased from Beijing Vital River Laboratory Animal Technology. Forty-eight male rats were randomly divided into six groups, with 8 animals per group. […] The gavage was done daily starting at 10am. At the end of the experiments, rats were euthanized by CO2 about 5~6 hours after the last gavage, and then hearts were harvested for further study. Left ventricular muscle was dissected and divided into 3 parts with similar size, one of which was used for RNA extraction and qRT-PCR.

[4] = test system: Cor.4U hiPSC-CMs; parameters: method as in GSE114686; conditions: ref GSE114686, cited from earlier work
[5] = test system: NRCMs; test: Lipid peroxidation by C11-bodipy 581/591 and flow cytometry
Description: For ROS assessment, cells were washed with PBS once and stained with 10μM H2DCFHDA (MCE) in phenol red-free DMEM (Procell) in a humid incubator with 5% CO2 at 37°C for 30 minutes. Cells were washed with PBS twice and dissociated to single cells before flow cytometry analysis at the FITC channel. For lipid peroxidation measurement, cells were washed with PBS once and stained with 2μM C11-bodipy^581/591 (Cayman) in phenol red-free DMEM (Procell) in a humid incubator with 5% CO2 at 37°C for 30 minutes. Cells were washed with PBS twice and dissociated to single cells before flow cytometry analysis at both the FITC and the PE channels. Fluorescence of the oxidized C11-bodipy were acquired through the FITC channel (Ex/Em=488/520nm) and that of the non-oxidized C11-bodipy through the PE channel (Ex/Em=555/624nm).

[6] = test system: ER stress genes in NRCMs; test: qRT-PCR of ER stress genes in NRCMs; assay type: cell-based, rat; conditions: afatinib 5.62 µM, sorafenib 3.16 μM, ponatinib 1.78 μM
[7] = test system: NRCMs; test: Mitochondrial membrane potential by TMRE staining; assay type: cell-based, rat; conditions: 24 h of treatment
Description: Fig S3 Mitochondrial membrane potential changes in response to TKIs. (A) Raw images of TMRE staining in NRCMs treated with different drugs. (B) Fold changes in mitochondrial membrane potential at different treatments.

[8] = test system: HELP hiPSC-CMs; test: CardioExcyte 96 microelectrode array: base impedance and extracellular field potential; assay type: cell-based, human; conditions: fixed doses: 10 µM, crizotinib and ponatinib 3.16 µM; up to 24 h
How it was run: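 HELP hiPSC-CMs plated at 50,000 cells/well on 96-well microelectrode arrays, cultured 3-5 days until impedance and field potential stabilized. Recordings before and every 30~60 min after drug addition (added at 2x); beat rate, impedance amplitude, base impedance and FPDc averaged over 3 wells.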

[9] = test system: Cor.4U hiPSC-CMs; test: 3'DGE-UMI RNAseq transcriptome of hiPSC-CMs
[10] = test system: rat left ventricles; test: Rat gavage cardiotoxicity model: qRT-PCR in left ventricles; assay type: in vivo; conditions: ponatinib 15 mg/kg, sorafenib 50 mg/kg gavage, 3 or 7 days
Description: as §1
RNA was isolated based on a standard protocol using TRIzol reagent (Vazyme). TRIzol (1ml per 1 well of a 6-well plate) was used to lyse cells and chloroform was added for RNA separation. Samples were shaked vigorously by hand for 15 seconds and incubated at room temperature for 2-3 minutes. RNA was present in the aqueous phase after centrifuge at 12000 x g for 15 minutes. Isopropyl alcohol was mixed to precipitate RNA from the aqueous phase. […] 1 μg total RNA was used for cDNA synthesis using a reverse transcription kit (Bioman). We then measured expression of genes of interest with SYBRR Green qPCR Mix (Bioman) using Applied Biosystems 7500 Quantitative PCR Instrument. […]

[11] = test system: patients; conditions: cited from earlier work
[12] = Sprague-Dawley, rat, 24 h, 10 µM

SMILES: CNC(=O)c1cc(Oc2ccc(NC(=O)Nc3ccc(Cl)c(C(F)(F)F)c3)cc2)ccn1 [sorafenib]
- cytosolic calcium concentration [1]: significant cytosolic overload of Ca^2+
- duration of activated eIF2α phosphorylation [2]: 6 h
- heart or body weight [3]: not changed
- CHAC1 logFC ([4]; Sorafenib 3.16 µM 168 hours): 3.62
- DDIT3 logFC ([4]; Sorafenib 3.16 µM 168 hours): 4.28
- DNAJB9 logFC ([4]; Sorafenib 3.16 µM 168 hours): 1
- TRIB3 logFC ([4]; Sorafenib 3.16 µM 168 hours): 5.51
- XBP1 logFC ([4]; Sorafenib 3.16 µM 168 hours): 1.42
- CHAC1 logFC ([4]; Sorafenib 10 µM 24 hours): 4.55
- DDIT3 logFC ([4]; Sorafenib 10 µM 24 hours): 4.73
- DNAJB9 logFC ([4]; Sorafenib 10 µM 24 hours): 1.43
- TRIB3 logFC ([4]; Sorafenib 10 µM 24 hours): 5.56
- XBP1 logFC ([4]; Sorafenib 10 µM 24 hours): 1.79
- change in percent of cells with high lipid peroxidation [5]: increased slightly
- level of lipid peroxidation, TKI alone [5, 12]: 94.6%
- level of lipid peroxidation, TKI with trolox [5, 12]: 88%
- temporal activation of ER stress genes, 72 versus 24 h [6]: most gene targets of ER stress were downregulated over time
- mitochondrial membrane potential [7]: decreased the mitochondrial membrane potential significantly
- effect on beat rate, contraction, base impedance and corrected field potential duration [8]: stopped beating and contraction of hiPSC-CMs after 0.5 h of treatment
- expression of tRNA aminoacylation gene markers (SARS, GARS) ([9]; Cluster 3): increased
- expression of genes associated with ER stress (ATF4, NUPR1, DDIT3, TRIB3, CHAC1, SESN2, HERPUD1) ([9]; high PC1 loadings, ponatinib at high dose): upregulated
- gene expression of Anp [10]: did not induce a significant change
- myocardial ischemia ([11]; clinical trials): 2.7–3%
- level of cardiotoxicity based on literature reports ([11]; ref Table S1, 2, 4, 26–36): high-levels of cardiotoxicity
